# Laboratory results published in article PMC6658769, “First-Time-in-Human Study and Prediction of Early Bactericidal Activity for GSK3036656, a Potent Leucyl-tRNA Synthetase Inhibitor for Tuberculosis Treatment” (Antimicrobial Agents and Chemotherapy, 2019).
# Like-named read-outs stand apart in the source and are kept apart here. Marks after values point to notes of the source that are not given here.
# Columns and labels:
# [1] = Food effect study (part A, high-fat meal); conditions: 5 mg; for half-life: human, plasma, po, t1/2, geometric LS mean
# [2] = both, human, in vivo
# [3] = human, in vivo
# [4] = human, in vivo; remark: listed apart in the source
# P-glycoprotein (P-gp) = P-glycoprotein (P-gp) (Homo sapiens, UniProt P08183); assay: P-gp substrate assessment; assay type: in vitro ADME; conditions: not told
# P-glycoprotein (P-gp), sequence (P08183 whole entry): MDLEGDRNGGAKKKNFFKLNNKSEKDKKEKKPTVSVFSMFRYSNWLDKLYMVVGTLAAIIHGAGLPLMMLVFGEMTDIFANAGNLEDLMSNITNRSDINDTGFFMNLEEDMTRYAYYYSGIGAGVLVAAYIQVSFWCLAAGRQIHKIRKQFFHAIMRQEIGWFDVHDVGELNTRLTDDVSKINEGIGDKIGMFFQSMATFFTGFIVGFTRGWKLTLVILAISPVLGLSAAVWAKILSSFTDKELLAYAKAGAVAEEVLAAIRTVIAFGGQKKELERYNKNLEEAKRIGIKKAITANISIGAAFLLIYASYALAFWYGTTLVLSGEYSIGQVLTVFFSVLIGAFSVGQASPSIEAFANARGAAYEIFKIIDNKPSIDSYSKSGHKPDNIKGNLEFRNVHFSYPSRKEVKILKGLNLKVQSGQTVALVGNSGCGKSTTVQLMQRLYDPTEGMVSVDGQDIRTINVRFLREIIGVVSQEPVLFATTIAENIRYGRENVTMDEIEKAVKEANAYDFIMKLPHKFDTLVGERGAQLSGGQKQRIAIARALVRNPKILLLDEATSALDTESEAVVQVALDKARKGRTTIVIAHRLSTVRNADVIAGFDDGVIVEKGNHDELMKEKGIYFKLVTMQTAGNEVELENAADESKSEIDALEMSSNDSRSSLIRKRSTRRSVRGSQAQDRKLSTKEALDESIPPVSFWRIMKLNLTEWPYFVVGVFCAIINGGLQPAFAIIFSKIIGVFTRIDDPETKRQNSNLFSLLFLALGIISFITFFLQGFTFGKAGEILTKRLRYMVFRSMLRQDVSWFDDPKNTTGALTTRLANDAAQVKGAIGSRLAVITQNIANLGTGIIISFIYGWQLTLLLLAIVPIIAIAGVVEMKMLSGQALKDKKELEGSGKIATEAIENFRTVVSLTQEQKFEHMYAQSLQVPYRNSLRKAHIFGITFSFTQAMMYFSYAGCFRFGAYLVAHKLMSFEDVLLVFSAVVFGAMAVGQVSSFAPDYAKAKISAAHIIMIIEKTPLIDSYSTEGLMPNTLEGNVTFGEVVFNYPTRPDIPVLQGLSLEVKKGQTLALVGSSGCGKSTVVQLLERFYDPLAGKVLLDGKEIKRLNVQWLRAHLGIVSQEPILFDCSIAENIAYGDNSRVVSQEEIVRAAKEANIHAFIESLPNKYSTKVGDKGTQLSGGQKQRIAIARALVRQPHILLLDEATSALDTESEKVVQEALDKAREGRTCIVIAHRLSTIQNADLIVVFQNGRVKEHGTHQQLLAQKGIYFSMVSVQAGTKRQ
# [5] = tested on: panel of common bacterial pathogens; assay: Activity against a panel of common bacterial pathogens; assay type: cell-based
# clinical [6] = conditions: human, in vivo, po
# [7] = tested on: M. tuberculosis bacterial strain H37Rv; parameters: method as in PMID 28953378; conditions: in vitro; cited from earlier work
# [8] = tested on: panel of mammalian cell lines; assay: Activity against a panel of mammalian cell lines; assay type: cell-based
# clinical [9] = conditions: human, in vivo, po, 5 mg, Ref
# OATP1B1 = biological target: T1, OATP1B1 (Homo sapiens, UniProt Q9Y6L6); assay: Direct inhibition of OATP1B1; assay type: in vitro ADME; conditions: in vitro
# T1 sequence (Q9Y6L6 1-691): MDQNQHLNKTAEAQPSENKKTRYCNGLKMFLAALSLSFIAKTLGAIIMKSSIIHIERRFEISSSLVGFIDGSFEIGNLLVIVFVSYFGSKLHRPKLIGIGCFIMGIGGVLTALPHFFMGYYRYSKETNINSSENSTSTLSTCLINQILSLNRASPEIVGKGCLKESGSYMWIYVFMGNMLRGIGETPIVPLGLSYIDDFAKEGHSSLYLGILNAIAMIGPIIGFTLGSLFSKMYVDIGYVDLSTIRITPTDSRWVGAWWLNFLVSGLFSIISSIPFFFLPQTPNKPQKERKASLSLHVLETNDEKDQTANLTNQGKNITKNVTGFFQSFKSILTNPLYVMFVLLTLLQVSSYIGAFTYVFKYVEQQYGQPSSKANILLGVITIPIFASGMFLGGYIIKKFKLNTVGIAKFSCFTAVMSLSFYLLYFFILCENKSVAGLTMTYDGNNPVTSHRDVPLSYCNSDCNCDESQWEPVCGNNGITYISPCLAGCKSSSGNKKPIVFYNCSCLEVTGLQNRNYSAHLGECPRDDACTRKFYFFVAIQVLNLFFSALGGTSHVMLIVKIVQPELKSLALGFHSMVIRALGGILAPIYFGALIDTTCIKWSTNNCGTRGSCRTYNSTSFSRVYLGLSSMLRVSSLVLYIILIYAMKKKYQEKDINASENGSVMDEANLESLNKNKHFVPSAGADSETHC
# [10] = mouse, in vivo
# M. tuberculosis H37Rv = assay: Acute lung infection model in mice; assay type: in vivo, C57BL/6 mice
# Description: The efficacy of GSK3036656 was assessed in C57BL/6 mice having acute and chronic lung infections by M. tuberculosis H37Rv, which mimic infections by actively replicating and nonreplicating/slow-replicating mycobacteria, respectively ([13], [14]). In the acute model, 10 mice were administered different daily oral doses ranging from 0.1 to 100 mg/kg of body weight for 8 days starting 1 day after infection. A maximum difference of 3.6 log CFU was obtained in the lungs compared to untreated mice. […] In the chronic model, a total of 18 mice were administered doses ranging from 0.1 to 30 mg/kg from weeks 6 to 14 after infection. Maximum reduction (drop of 2.1 log10 CFU in the lungs) was achieved after 2 months of daily oral treatment and after fitting the data to a sigmoidal curve. The EDmax for GSK3036656 was estimated as 1.3 mg/kg ([…], 0.7 to 3.4 mg/kg). […] Some additional groups treated at 0.3 to 30 mg/kg were studied in the chronic model to obtain kinetic data (from 2 to 16 weeks of treatment).
# [11] = FTIH study part A (single dose): safety and tolerability
# [12] = tested on: M. tuberculosis fast-growing and slow-growing populations; assay: PK/PD parameters estimated from acute and chronic mouse infection models; assay type: in vivo; conditions: for EC50: Mycobacterium tuberculosis
# [13] = Population PK model at completion of the study
# [14] = biological target: M. tuberculosis enzyme leucyl-tRNA synthetase (LeuRS); parameters: method as in PMID 28953378; conditions: LeuRS aminoacylation assay; cited from earlier work
# [15] = FTIH part A: plasma pharmacokinetics after single dose; conditions: human, po
# [16] = human, in vivo; remark: listed apart in the source
compound,measurement,setting,value
"NC[C@H]1OB(O)c2c(OCCO)ccc(Cl)c21 [GSK3036656, (S)-3-(aminomethyl)-4-chloro-7-(2-hydroxyethoxy)benzo[c][1,2]oxaborol-1(3H)-ol]",t1/2 ratio,[1]; fed vs fasted,0.89
same,half-life,"[1]; Ref, 5 mg fasted, n = 6",38.6 h
same,half-life,"[1]; Test, 5 mg fed, n = 5",34.4 h
same,"dose-proportionality slope, AUC0–t",[2],1.32
same,"dose-proportionality slope, Cmax and AUC0–∞",[2],0.96
same,"dose-proportionality slope, Cmax",[3]; both,1.19
same,"steady-state AUC relative to the target exposure for efficacy in humans (1,740 ng · h/ml)",[3]; both,approximately 2.5 fold
same,accumulation of Cmax and AUC0–τ with repeated administration,"[3]; both, 14 days",2-3 fold
same,"dose-proportionality slope, Cmax","[3]; both, 14 days",1.06
same,"RoCmax, geometric LS mean, Ref",[3]; 5 mg,48.40 ng/mL
same,"RoCmax, geometric LS mean, Test",[3]; 5 mg,97.04 ng/mL
same,"RoCmax, geometric LS mean, Ref",[3]; 15 mg,178.79 ng/mL
same,"RoCmax, geometric LS mean, Test",[3]; 15 mg,309.55 ng/mL
same,Tmax difference (fed-fasted),[4],0.75^b h
same,P-gp substrate,P-glycoprotein (P-gp),not a P-glycoprotein (P-gp) substrate
same,activity against a panel of common bacterial pathogens,[5],inactivity
same,AUC(0-inf),"clinical [6]; both, 5 mg",1.4 µg·h/mL
same,AUC(0-t),"clinical [6]; both, 5 mg",0.771 µg·h/mL
same,Cmax,"clinical [6]; both, 5 mg",0.0491 µg/mL
same,Tmax,"clinical [6]; both, 5 mg",1.1 h
same,AUC(0-inf),"clinical [6]; both, 15 mg",3.8 µg·h/mL
same,AUC(0-t),"clinical [6]; both, 15 mg",3.25 µg·h/mL
same,Cmax,"clinical [6]; both, 15 mg",0.178 µg/mL
same,AUC(0-inf),clinical [6]; 25 mg,6.56 µg·h/mL
same,AUC(0-t),clinical [6]; 25 mg,5.69 µg·h/mL
same,Cmax,clinical [6]; 25 mg,0.207 µg/mL
same,Tmax,clinical [6]; 25 mg,1.1 h
same,MIC,[7],0.0235 mg/L
same,activity against a panel of mammalian cell lines,[8],inactivity
same,AUC(0-t),"clinical [9]; AUC0–t, geometric LS mean",0.732 µg·h/mL
same,AUC(0-inf),"clinical [9]; AUC0–∞, geometric LS mean",1.43 µg·h/mL
same,Cmax,"clinical [9]; Cmax, geometric LS mean",0.0484 µg/mL
same,Tmax,clinical [9]; Tmax,1.25 h
same,direct inhibition of OATP1B1,OATP1B1,minimal evidence for direct inhibition
same,oral bioavailability,[10],very high
same,maximum difference in the lungs compared to untreated mice,M. tuberculosis H37Rv; daily oral doses 0.1 to 100 mg/kg for 8 days,3.6 log CFU
same,EDmax (effective dose giving 90% of the total effect),M. tuberculosis H37Rv; sigmoidal fit,1.1 mg/kg
same,No. (%) of subjects with AE: Musculoskeletal chest pain,[11]; single dose 5 mg (n = 6),0 No. (%)
same,No. (%) of subjects with AE: Musculoskeletal chest pain,"[11]; single dose 5 mg, fed (n = 5)",0 No. (%)
same,No. (%) of subjects with AE: Musculoskeletal chest pain,[11]; single dose 15 mg (n = 6),0 No. (%)
same,No. (%) of subjects with AE: Musculoskeletal chest pain,[11]; single dose 25 mg (n = 6),1 (17) No. (%)
same,EC50,"[12]; fast-growing population, SE = 13%, read-out: EC50-F in mouse",0.0156 mg/L
same,EC50,"[12]; slow-growing population, SE = 23%, read-out: EC50-S in mouse",0.0317 mg/L
same,Emax-S (maximum killing rate against a slow-growing population),[12]; fixed to estimated value from mouse infection models,0.0037 (FIX)^b h^−1
same,"CL/F, bootstrap median estimate","[13]; bootstrap (1,000 runs)",3.7 L/h
same,"IIV Q/F, bootstrap median estimate","[13]; bootstrap (1,000 runs)",26.5
same,"IIV V2/F, bootstrap median estimate","[13]; bootstrap (1,000 runs)",107
same,"IIV V3/F, bootstrap median estimate","[13]; bootstrap (1,000 runs)",22.9
same,"Q/F, bootstrap median estimate","[13]; bootstrap (1,000 runs)",63.1 L/h
same,"V2/F, bootstrap median estimate","[13]; bootstrap (1,000 runs)",15.9 L
same,"V3/F, bootstrap median estimate","[13]; bootstrap (1,000 runs)",149 L
same,"CL/F, estimate (%SE)",[13]; final population PK model,3.69 (3) liters/h
same,"Q/F, estimate (%SE)",[13]; final population PK model,63 (15) liters/h
same,"V2/F, estimate (%SE)",[13]; final population PK model,14.9 (30) liters
same,"V3/F, estimate (%SE)",[13]; final population PK model,150 (6) liters
same,"IIV Q/F, estimate (%SE)","[13]; random effects, final model",27.3 (37)
same,"IIV V2/F, estimate (%SE)","[13]; random effects, final model",111 (37)
same,"IIV V3/F, estimate (%SE)","[13]; random effects, final model",23.3 (30)
same,50% inhibitory concentration (IC50),[14],0.0588 mg/L
same,half-life,"[15]; both, 5 mg",40.9 h
same,half-life,"[15]; both, 15 mg",28.4 h
same,half-life,[15]; 25 mg,49.9 h
same,Total % dose (drug-related material) in pooled urine,[16],50 % dose
